Values after ≈ are worked out from the molar mass of the structure shown.
Legend:
Format in all cases: functional
[1] = system: Mycobacterium tuberculosis; test: Antituberculosis activity against Mycobacterium tuberculosis H37Rv assessed as growth inhibition after 12 to 28 days by L-J MIC method; conditions: for MIC: Mycobacterium tuberculosis, H37Rv
Candida albicans [2] = test: Antimicrobial activity against Candida albicans MTCC 183 assessed as growth inhibition after 48 hr by agar streak dilution technique; conditions: MTCC 183, 48 h
Aspergillus niger [3] = test: Antimicrobial activity against Aspergillus niger MTCC 282 assessed as growth inhibition after 48 hr by agar streak dilution technique; conditions: MTCC 282, 48 h
Pseudomonas aeruginosa [4] = test: Antimicrobial activity against Pseudomonas aeruginosa MTCC 741 assessed as growth inhibition after 24 hr by agar streak dilution technique; conditions: MTCC 741, 24 h
Escherichia coli [5] = test: Antimicrobial activity against Escherichia coli MTCC 739 assessed as growth inhibition after 24 hr by agar streak dilution technique; conditions: MTCC 739, 24 h
Bacillus subtilis [6] = test: Antimicrobial activity against Bacillus subtilis MTCC 430 assessed as growth inhibition after 24 hr by agar streak dilution technique; conditions: MTCC 430, 24 h
Staphylococcus aureus [7] = test: Antimicrobial activity against Staphylococcus aureus MTCC 96 assessed as growth inhibition after 24 hr by agar streak dilution technique; conditions: MTCC 96, 24 h
Candida albicans [8] = test: Antimicrobial activity against Candida albicans MTCC 183 assessed as diameter of growth inhibition zone after 24 hr by paper disk diffusion technique
Aspergillus niger [9] = test: Antimicrobial activity against Aspergillus niger MTCC 282 assessed as diameter of growth inhibition zone after 24 hr by paper disk diffusion technique
Pseudomonas aeruginosa [10] = test: Antimicrobial activity against Pseudomonas aeruginosa MTCC 741 assessed as diameter of growth inhibition zone after 24 hr by paper disk diffusion technique
Escherichia coli [11] = test: Antimicrobial activity against Escherichia coli MTCC 739 assessed as diameter of growth inhibition zone after 24 hr by paper disk diffusion technique
Bacillus subtilis [12] = test: Antimicrobial activity against Bacillus subtilis MTCC 430 assessed as diameter of growth inhibition zone after 24 hr by paper disk diffusion technique
Staphylococcus aureus [13] = test: Antimicrobial activity against Staphylococcus aureus MTCC 96 assessed as diameter of growth inhibition zone after 24 hr by paper disk diffusion technique

`O=C1C(Cl)C(c2cc3ccccc3nc2Cl)N1c1ccc(Cl)cc1` (stereo unspecified) was tested, and the “growth inhibition (GI)” value [1] was 95%, the MIC [1] was 100 µg/mL (≈ 265 µM) and the MIC (Candida albicans [2]) was 62.5 µg/mL (≈ 165 µM). It also gave an MIC (Aspergillus niger [3]) of 100 µg/mL (≈ 265 µM), an MIC (Pseudomonas aeruginosa [4]) of 25 µg/mL (≈ 66.2 µM) and an MIC (Escherichia coli [5]) of 50 µg/mL (≈ 132 µM). The MIC (Bacillus subtilis [6]) was 12.5 µg/mL (≈ 33.1 µM), the MIC (Staphylococcus aureus [7]) was 50 µg/mL (≈ 132 µM) and the “diameter of the inhibition zone (DIZ)” value (Candida albicans [8]) was 21 mm. The “diameter of the inhibition zone (DIZ)” value (Aspergillus niger [9]) was 22 mm, the “diameter of the inhibition zone (DIZ)” value (Pseudomonas aeruginosa [10]) was 23 mm and the “diameter of the inhibition zone (DIZ)” value (Escherichia coli [11]) was 22 mm. The “diameter of the inhibition zone (DIZ)” value (Bacillus subtilis [12]) was 24 mm and the “diameter of the inhibition zone (DIZ)” value (Staphylococcus aureus [13]) was 21 mm.
In the case of `O=C1C(Cl)C(c2cc3ccccc3nc2Cl)N1c1ccc(F)cc1` (stereo unspecified), the “growth inhibition (GI)” value [1] is reported as 98%, the MIC [1] is reported as 25 µg/mL (≈ 69.2 µM) and the MIC (Candida albicans [2]) is reported as 50 µg/mL (≈ 138 µM). For the same compound, the MIC (Aspergillus niger [3]) was 25 µg/mL (≈ 69.2 µM), the MIC (Pseudomonas aeruginosa [4]) was 50 µg/mL (≈ 138 µM) and the MIC (Escherichia coli [5]) was 25 µg/mL (≈ 69.2 µM). For the same compound, the MIC (Bacillus subtilis [6]) was 25 µg/mL (≈ 69.2 µM), the MIC (Staphylococcus aureus [7]) was 25 µg/mL (≈ 69.2 µM) and the “diameter of the inhibition zone (DIZ)” value (Candida albicans [8]) was 24 mm. The “diameter of the inhibition zone (DIZ)” value (Aspergillus niger [9]) was 26 mm, the “diameter of the inhibition zone (DIZ)” value (Pseudomonas aeruginosa [10]) was 22 mm and the “diameter of the inhibition zone (DIZ)” value (Escherichia coli [11]) was 23 mm. The “diameter of the inhibition zone (DIZ)” value (Bacillus subtilis [12]) was 23 mm and the “diameter of the inhibition zone (DIZ)” value (Staphylococcus aureus [13]) was 23 mm.
In the case of `Cc1cnc(N2C(=O)C(Cl)C2c2cc3ccccc3nc2Cl)s1` (stereo unspecified), the “growth inhibition (GI)” value [1] is reported as 99%, the MIC [1] is reported as 12.5 µg/mL (≈ 34.3 µM) and the MIC (Candida albicans [2]) is reported as 100 µg/mL (≈ 275 µM). For the same compound, the MIC (Aspergillus niger [3]) was 62.5 µg/mL (≈ 172 µM), the MIC (Pseudomonas aeruginosa [4]) was 50 µg/mL (≈ 137 µM) and the MIC (Escherichia coli [5]) was 25 µg/mL (≈ 68.6 µM). For the same compound, the MIC (Bacillus subtilis [6]) was 50 µg/mL (≈ 137 µM), the MIC (Staphylococcus aureus [7]) was 50 µg/mL (≈ 137 µM) and the “diameter of the inhibition zone (DIZ)” value (Candida albicans [8]) was 23 mm. For the same compound, the “diameter of the inhibition zone (DIZ)” value (Aspergillus niger [9]) was 23 mm, the “diameter of the inhibition zone (DIZ)” value (Pseudomonas aeruginosa [10]) was 21 mm and the “diameter of the inhibition zone (DIZ)” value (Escherichia coli [11]) was 24 mm. The “diameter of the inhibition zone (DIZ)” value (Bacillus subtilis [12]) was 21 mm and the “diameter of the inhibition zone (DIZ)” value (Staphylococcus aureus [13]) was 23 mm.
With `O=C1CSC(c2cc3ccccc3nc2Cl)N1c1ccccc1` (stereo unspecified) the “growth inhibition (GI)” value [1] was 92%, the MIC [1] was 250 µg/mL (≈ 733 µM) and the MIC (Candida albicans [2]) was 100 µg/mL (≈ 293 µM). It also gave an MIC (Aspergillus niger [3]) of 100 µg/mL (≈ 293 µM), an MIC (Pseudomonas aeruginosa [4]) of 100 µg/mL (≈ 293 µM) and an MIC (Escherichia coli [5]) of 100 µg/mL (≈ 293 µM). For the same compound, the MIC (Bacillus subtilis [6]) was 100 µg/mL (≈ 293 µM), the MIC (Staphylococcus aureus [7]) was 100 µg/mL (≈ 293 µM) and the “diameter of the inhibition zone (DIZ)” value (Candida albicans [8]) was <10 mm. The “diameter of the inhibition zone (DIZ)” value (Aspergillus niger [9]) was 14 mm, the “diameter of the inhibition zone (DIZ)” value (Pseudomonas aeruginosa [10]) was 13 mm and the “diameter of the inhibition zone (DIZ)” value (Escherichia coli [11]) was <10 mm. The “diameter of the inhibition zone (DIZ)” value (Bacillus subtilis [12]) was <10 mm and the “diameter of the inhibition zone (DIZ)” value (Staphylococcus aureus [13]) was 17 mm.
With `Cc1ccccc1N1C(=O)CSC1c1cc2ccccc2nc1Cl` (stereo unspecified) the “growth inhibition (GI)” value [1] was 90%, the MIC [1] was 500 µg/mL (≈ 1410 µM) and the MIC (Candida albicans [2]) was 100 µg/mL (≈ 282 µM). It also gave an MIC (Aspergillus niger [3]) of 100 µg/mL (≈ 282 µM), an MIC (Pseudomonas aeruginosa [4]) of 100 µg/mL (≈ 282 µM) and an MIC (Escherichia coli [5]) of 100 µg/mL (≈ 282 µM). The MIC (Bacillus subtilis [6]) was 100 µg/mL (≈ 282 µM), the MIC (Staphylococcus aureus [7]) was 100 µg/mL (≈ 282 µM) and the “diameter of the inhibition zone (DIZ)” value (Candida albicans [8]) was <10 mm. For the same compound, the “diameter of the inhibition zone (DIZ)” value (Aspergillus niger [9]) was <10 mm, the “diameter of the inhibition zone (DIZ)” value (Pseudomonas aeruginosa [10]) was <10 mm and the “diameter of the inhibition zone (DIZ)” value (Escherichia coli [11]) was <10 mm. The “diameter of the inhibition zone (DIZ)” value (Bacillus subtilis [12]) was <10 mm and the “diameter of the inhibition zone (DIZ)” value (Staphylococcus aureus [13]) was <10 mm.
In the case of `Cc1cccc(N2C(=O)CSC2c2cc3ccccc3nc2Cl)c1` (stereo unspecified), the “growth inhibition (GI)” value [1] is reported as 90%, the MIC [1] is reported as 500 µg/mL (≈ 1410 µM) and the MIC (Candida albicans [2]) is reported as 100 µg/mL (≈ 282 µM). For the same compound, the MIC (Aspergillus niger [3]) was 100 µg/mL (≈ 282 µM), the MIC (Pseudomonas aeruginosa [4]) was 100 µg/mL (≈ 282 µM) and the MIC (Escherichia coli [5]) was 100 µg/mL (≈ 282 µM). The MIC (Bacillus subtilis [6]) was 100 µg/mL (≈ 282 µM), the MIC (Staphylococcus aureus [7]) was 100 µg/mL (≈ 282 µM) and the “diameter of the inhibition zone (DIZ)” value (Candida albicans [8]) was 13 mm. The “diameter of the inhibition zone (DIZ)” value (Aspergillus niger [9]) was 19 mm, the “diameter of the inhibition zone (DIZ)” value (Pseudomonas aeruginosa [10]) was 16 mm and the “diameter of the inhibition zone (DIZ)” value (Escherichia coli [11]) was <10 mm. For the same compound, the “diameter of the inhibition zone (DIZ)” value (Bacillus subtilis [12]) was 17 mm and the “diameter of the inhibition zone (DIZ)” value (Staphylococcus aureus [13]) was 18 mm.
In the case of `Cc1ccc(N2C(=O)CSC2c2cc3ccccc3nc2Cl)cc1` (stereo unspecified), the “growth inhibition (GI)” value [1] is reported as 94%, the MIC [1] is reported as 250 µg/mL (≈ 704 µM) and the MIC (Candida albicans [2]) is reported as 100 µg/mL (≈ 282 µM). It also gave an MIC (Aspergillus niger [3]) of 100 µg/mL (≈ 282 µM), an MIC (Pseudomonas aeruginosa [4]) of 62.5 µg/mL (≈ 176 µM) and an MIC (Escherichia coli [5]) of 100 µg/mL (≈ 282 µM). For the same compound, the MIC (Bacillus subtilis [6]) was 100 µg/mL (≈ 282 µM), the MIC (Staphylococcus aureus [7]) was 100 µg/mL (≈ 282 µM) and the “diameter of the inhibition zone (DIZ)” value (Candida albicans [8]) was 17 mm. For the same compound, the “diameter of the inhibition zone (DIZ)” value (Aspergillus niger [9]) was <10 mm, the “diameter of the inhibition zone (DIZ)” value (Pseudomonas aeruginosa [10]) was 20 mm and the “diameter of the inhibition zone (DIZ)” value (Escherichia coli [11]) was 17 mm. The “diameter of the inhibition zone (DIZ)” value (Bacillus subtilis [12]) was 19 mm and the “diameter of the inhibition zone (DIZ)” value (Staphylococcus aureus [13]) was 19 mm.
`O=C1CSC(c2cc3ccccc3nc2Cl)N1c1ccccc1[N+](=O)[O-]` (stereo unspecified) was tested, and the “growth inhibition (GI)” value [1] was 93%, the MIC [1] was 200 µg/mL (≈ 518 µM) and the MIC (Candida albicans [2]) was 100 µg/mL (≈ 259 µM). The MIC (Aspergillus niger [3]) was 50 µg/mL (≈ 130 µM), the MIC (Pseudomonas aeruginosa [4]) was 12.5 µg/mL (≈ 32.4 µM) and the MIC (Escherichia coli [5]) was 12.5 µg/mL (≈ 32.4 µM). For the same compound, the MIC (Bacillus subtilis [6]) was 62.5 µg/mL (≈ 162 µM), the MIC (Staphylococcus aureus [7]) was 25 µg/mL (≈ 64.8 µM) and the “diameter of the inhibition zone (DIZ)” value (Candida albicans [8]) was 20 mm. For the same compound, the “diameter of the inhibition zone (DIZ)” value (Aspergillus niger [9]) was 22 mm, the “diameter of the inhibition zone (DIZ)” value (Pseudomonas aeruginosa [10]) was 25 mm and the “diameter of the inhibition zone (DIZ)” value (Escherichia coli [11]) was 24 mm. The “diameter of the inhibition zone (DIZ)” value (Bacillus subtilis [12]) was 21 mm and the “diameter of the inhibition zone (DIZ)” value (Staphylococcus aureus [13]) was 25 mm.
In the case of `O=C1CSC(c2cc3ccccc3nc2Cl)N1c1cccc([N+](=O)[O-])c1` (stereo unspecified), the “growth inhibition (GI)” value [1] is reported as 94%, the MIC [1] is reported as 100 µg/mL (≈ 259 µM) and the MIC (Candida albicans [2]) is reported as 25 µg/mL (≈ 64.8 µM). For the same compound, the MIC (Aspergillus niger [3]) was 25 µg/mL (≈ 64.8 µM), the MIC (Pseudomonas aeruginosa [4]) was 12.5 µg/mL (≈ 32.4 µM) and the MIC (Escherichia coli [5]) was 62.5 µg/mL (≈ 162 µM). The MIC (Bacillus subtilis [6]) was 50 µg/mL (≈ 130 µM), the MIC (Staphylococcus aureus [7]) was 12.5 µg/mL (≈ 32.4 µM) and the “diameter of the inhibition zone (DIZ)” value (Candida albicans [8]) was 23 mm. For the same compound, the “diameter of the inhibition zone (DIZ)” value (Aspergillus niger [9]) was 24 mm, the “diameter of the inhibition zone (DIZ)” value (Pseudomonas aeruginosa [10]) was 24 mm and the “diameter of the inhibition zone (DIZ)” value (Escherichia coli [11]) was 22 mm. For the same compound, the “diameter of the inhibition zone (DIZ)” value (Bacillus subtilis [12]) was 22 mm and the “diameter of the inhibition zone (DIZ)” value (Staphylococcus aureus [13]) was 26 mm.
